# Earlier results as cited in patent publication US20070059360A1, “WATER-DISPERSIBLE ANTI-RETROVIRAL PHARMACEUTICAL COMPOSITIONS” (priority 2005, published 2007).
# Target: HIV reverse transcriptase (Human immunodeficiency virus type 1 group M subtype B, UniProt P04585)
# Details: in vitro; reported by S. A. Riddler, et al
structure (smiles),measurement,value
"Cc1cn([C@H]2C=C[C@@H](CO)O2)c(=O)[nH]c1=O [Stavudine, 2′,3′-didehydro-3′-deoxythymidine]",Inhibition of HIV reverse transcriptase,potent inhibitor
